Data reported in patent US11014917B2, “5-fluoro-c-(aryl or heterocyclyl)-glycoside derivatives useful as dual SGLT1 / SGLT2 modulators” (Janssen Pharmaceutica NV, priority 2017, dated 2021).

How the values were obtained:
[1] = molecular target: T1, human SGLT1 (Homo sapiens, UniProt P13866); assay: SGLT1 assay: Na-dependent 14C-AMG uptake in CHO-K1 cells stably expressing human SGLT1; assay type: cell-based; conditions: for IC50: average if tested more than once; for inhibition at 0.3 µM / SGLT1 %-inhibition: @ 0.3 μM
T1 construct: expressed in transfected cells
T1 sequence (P13866 1-664): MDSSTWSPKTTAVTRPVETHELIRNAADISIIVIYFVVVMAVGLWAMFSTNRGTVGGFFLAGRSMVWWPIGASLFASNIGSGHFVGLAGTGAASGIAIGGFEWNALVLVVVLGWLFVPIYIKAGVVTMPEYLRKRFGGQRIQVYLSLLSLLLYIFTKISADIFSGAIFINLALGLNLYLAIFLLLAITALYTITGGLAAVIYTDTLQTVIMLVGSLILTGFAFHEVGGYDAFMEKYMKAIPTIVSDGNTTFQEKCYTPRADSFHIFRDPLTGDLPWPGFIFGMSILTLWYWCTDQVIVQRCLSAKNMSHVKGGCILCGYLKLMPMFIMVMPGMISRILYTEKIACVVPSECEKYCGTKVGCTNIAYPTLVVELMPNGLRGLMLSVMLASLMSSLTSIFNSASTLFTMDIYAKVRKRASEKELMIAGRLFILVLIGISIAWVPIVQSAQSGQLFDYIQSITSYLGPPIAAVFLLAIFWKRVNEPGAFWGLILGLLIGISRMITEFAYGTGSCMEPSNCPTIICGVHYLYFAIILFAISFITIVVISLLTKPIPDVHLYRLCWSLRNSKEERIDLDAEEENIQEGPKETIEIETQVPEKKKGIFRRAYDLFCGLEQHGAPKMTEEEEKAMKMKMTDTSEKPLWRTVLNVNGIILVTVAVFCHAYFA
Method: (§1) The ability of the compounds of formula (I) of the present invention to treat an SGLT-mediated condition was determined using the following procedures:
(§2) SGLT1 and SGLT2 were cloned in form of cDNA from human small intestine (Genbank M24847), and from human kidney (Genbank M95549), respectively. Subsequently, each full cDNA was subcloned into pcDNA with each construct's integrity verified through follow-on sequencing. To generate CHO-K1 cells that stably express human SGLT1 or human SGLT2, CHO-K1 cells were transfected using DMRIE-C reagent (Life Technologies, Gaithersburg, Md.). Transfected cells were then selected in the presence of 500 μg/ml of the Geneticin (G418 Cellgro Catalog No. 30234-Cl)
(§3) Individual clones were then characterized using the following cell-based assay for sodium-dependent glucose transport:
(§4) Inhibition of SGLT1 and SGLT2 activity was assessed in CHO K1 cells stably expressing either human SGLT1 or SGLT2, using the SGLT specific glucose analog methyl-glucopyranoside (Sigma Catalog No. M-9376). Cells were plated (45,000 cells/well) in white wall 96-well plates (COSTAR, Cat #3903) for 24 hours in growth medium, then a final concentration of 10 mM Na-Butyrate (ALDRICH Cat #30341-0) was added. The cells were incubated for 24 hours. On the day of the assay, cells were rinsed and treated with test compounds (at concentrations of 0.001 μM to 10 μM) in assay buffer (50 mM HEPES, 20 mM Tris base, 5 mM KCl, 1 mM MgCl2, 1 mM CaCl2 and 137 mM NaCl, pH 7.4) for 10 minutes. Cells were then incubated with ^14C-a-methyl-d-glucopyranoside (AMG, Amersham Catalog No. CFB 76), using 0.07 μCi per well in 500 μM AMG final concentration. The cells were incubated for 2 hours at 37° C. with 5% CO2 and washed two times with ice-cold Phosphate Buffer Solution (Cellgro Catalog No. 21030-CV). The cells were then solubilized by adding 60 μl of MICROSCINT™20 and the Na-dependent ^14C-AMG uptake was quantified by measuring radioactivity. Plates were counted in a TopCount (Packard, Meriden, Conn.)
(§5) Representative compounds of the present invention were tested according to the procedures as described in Biological Example 1 and 2 above, with results as listed in Table 5, below. Results are reported as the %-inhibition or IC50 value. Variability for the functional assay was typically within 20%.

[2] = molecular target: T2, human SGLT2 (Homo sapiens, UniProt P31639); assay: SGLT2 assay: Na-dependent 14C-AMG uptake in CHO-K1 cells stably expressing human SGLT2; assay type: cell-based; conditions: for IC50: average if tested more than once; for inhibition at 0.3 µM / SGLT2 %-inhibition: @ 0.3 μM
T2 construct: expressed in transfected cells
T2 sequence (P31639 1-672): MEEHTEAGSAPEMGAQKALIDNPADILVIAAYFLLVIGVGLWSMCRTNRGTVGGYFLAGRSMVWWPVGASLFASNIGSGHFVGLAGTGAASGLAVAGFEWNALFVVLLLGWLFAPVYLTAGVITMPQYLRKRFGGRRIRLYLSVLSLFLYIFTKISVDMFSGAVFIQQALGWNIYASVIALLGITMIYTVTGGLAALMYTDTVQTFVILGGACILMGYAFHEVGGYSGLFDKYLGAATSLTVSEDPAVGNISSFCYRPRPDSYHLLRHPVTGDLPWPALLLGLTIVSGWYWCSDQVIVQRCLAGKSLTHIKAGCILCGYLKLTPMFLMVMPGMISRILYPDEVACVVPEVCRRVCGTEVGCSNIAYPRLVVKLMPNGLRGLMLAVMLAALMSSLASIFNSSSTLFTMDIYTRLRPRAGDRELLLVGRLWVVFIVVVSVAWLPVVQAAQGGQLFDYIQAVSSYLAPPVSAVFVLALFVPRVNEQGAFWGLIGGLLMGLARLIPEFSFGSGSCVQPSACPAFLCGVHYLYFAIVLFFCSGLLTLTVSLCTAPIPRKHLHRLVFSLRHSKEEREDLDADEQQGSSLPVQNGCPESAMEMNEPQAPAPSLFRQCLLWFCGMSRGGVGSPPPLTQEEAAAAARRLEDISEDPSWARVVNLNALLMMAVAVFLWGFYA
Method: as §1, §2, §3, §4, §5

SMILES	IC50 [1]	IC50 [2]	SGLT2 %-inhibition [2]	also measured
COc1c(Cc2ccc3c(c2)SCCO3)cc([C@@H]2O[C@H](CO)[C@@H](F)[C@H](O)[C@H]2O)c2c1CCO2 [Compound 128, (2S,3R,4R,5S,6R)-2-(5-((2,3-dihydrobenzo[b][1,4]oxathiin-6-yl)methyl)-4-methoxy-2,3-dihydrobenzofuran-7-yl)-5-fluoro-6-(hydroxymethyl)-tetrahydro-2H-pyran-3,4-diol]	0.187 µM	0.062 µM	–	–
Cc1ccc([C@@H]2O[C@H](CO)[C@@H](F)[C@H](O)[C@H]2O)cc1Cc1cc2c(s1)CCN(C(=O)c1nccs1)C2 [Compound 109, (2-(5-((2S,3R,4R,5S,6R)-5-fluoro-3,4-dihydroxy-6-(hydroxymethyl)-tetrahydro-2H-pyran-2-yl)-2-methylbenzyl)-6,7-dihydrothieno[3,2-c]pyridin-5(4H)-yl)(thiazol-2-yl)methanone]	–	–	–	inhibition at 0.3 µM [1]: 39.5%; inhibition at 0.3 µM [2]: 72.7%
Cc1ccc([C@@H]2O[C@H](CO)[C@@H](F)[C@H](O)[C@H]2O)cc1Cc1cc2c(s1)CCCC2=O [Compound 116]	–	–	78.0% @ 0.3 μM	SGLT1 %-inhibition [1]: 11.5% @ 0.3 μM
COC(=O)N1CCc2sc(Cc3cc([C@@H]4O[C@H](CO)[C@@H](F)[C@H](O)[C@H]4O)c(OC)cc3Cl)cc2C1 [Compound 76]	–	–	72.2% @ 0.3 μM	SGLT1 %-inhibition [1]: 28.6% @ 0.3 μM
CCc1cc(O)c([C@@H]2O[C@H](CO)[C@@H](F)[C@H](O)[C@H]2O)cc1Cc1cc2ccccc2s1 [Compound 31]	0.009 µM	0.019 µM	–	–
Cc1ccc([C@@H]2O[C@H](CO)[C@@H](F)[C@H](O)[C@H]2O)cc1Cc1cc2c(s1)CCN(C(=O)C1CCCC1)C2 [Compound 87]	–	–	59.0% @ 0.3 μM	SGLT1 %-inhibition [1]: 48.7% @ 0.3 μM
CCc1ccc(Cc2cc([C@@H]3O[C@H](CO)[C@@H](F)[C@H](O)[C@H]3O)c(OC)c3c2OCC3)cc1 [Compound 135]	0.085 µM	0.008 µM	–	–
CN1CCCc2ccc(Cc3cc([C@@H]4O[C@H](CO)[C@@H](F)[C@H](O)[C@H]4O)cc4c3OCC4)cc21 [Compound 94]	–	–	19.2% @ 0.3 μM	SGLT1 %-inhibition [1]: 32.6% @ 0.3 μM
COc1cc(O)c([C@@H]2O[C@H](CN)[C@@H](F)[C@H](O)[C@H]2O)cc1Cc1cc2ccccc2s1 [Compound 28]	–	–	50.3% @ 0.3 μM	–
[2H]C([2H])([2H])Oc1c([C@@H]2O[C@H](CO)[C@@H](F)[C@H](O)[C@H]2O)cc(Cc2ccc3c(c2)OCCO3)c2c1CCO2 [Compound 160, (2S,3R,4R,5S,6R)-2-[7-(2,3-dihydro-1,4-benzodioxin-6-ylmethyl)-4-(trideuteriomethoxy)-2,3-dihydrobenzofuran-5-yl]-5-fluoro-6-(hydroxymethyl)tetrahydropyran-3,4-diol]	0.071 µM	0.008 µM	–	–
Cc1cc(O)c([C@@H]2O[C@H](CC#N)[C@@H](F)[C@H](O)[C@H]2O)cc1Cc1cc2ccccc2s1 [Compound 23]	–	0.069 µM	–	inhibition at 0.3 µM [1]: 65.2%
OC[C@H]1O[C@@H](c2cc(Cc3cc4ccccc4s3)c(Cl)cc2O)[C@H](O)[C@@H](O)[C@@H]1F [Compound 7]	0.018 µM	0.006 µM	–	–
COc1cc(C)c(Cc2cc3c(s2)CCN(c2ncc(C)s2)C3)cc1[C@@H]1O[C@H](CO)[C@@H](F)[C@H](O)[C@H]1O [Compound 123]	1.36 µM	0.1 µM	–	–
OC[C@H]1O[C@@H](c2cc(Cc3ccc4c(c3)OCCO4)c(O)c3c2OCC3)[C@H](O)[C@@H](O)[C@@H]1F [Compound 98, (2S,3R,4R,5S,6R)-2-[5-(2,3-dihydro-1,4-benzodioxin-6-ylmethyl)-4-hydroxy-2,3-dihydrobenzofuran-7-yl]-5-fluoro-6-(hydroxymethyl)tetrahydropyran-3,4-diol]	–	–	–	inhibition at 0.3 µM [1]: 30.9%; inhibition at 0.3 µM [2]: 26%
OC[C@H]1O[C@@H](c2cc(Cc3cc4ccccc4s3)c3c(c2O)CCO3)[C@H](O)[C@@H](O)[C@@H]1F [Compound 59]	0.031 µM	0.009 µM	–	–
COc1cc(C)c(Cc2cc3c(s2)CCN(C(=O)c2nccs2)C3)cc1[C@@H]1O[C@H](CO)[C@@H](F)[C@H](O)[C@H]1O [Compound 112, (2-(5-((2S,3R,4R,5S,6R)-5-fluoro-3,4-dihydroxy-6-(hydroxymethyl)-tetrahydro-2H-pyran-2-yl)-4-methoxy-2-methylbenzyl)-6,7-dihydrothieno[3,2-c]pyridin-5(4H)-yl)(thiazol-2-yl)methanone]	0.376 µM	0.023 µM	–	–
CC(C)Oc1cc(O)c([C@@H]2O[C@H](CO)[C@@H](F)[C@H](O)[C@H]2O)cc1Cc1cc2ccccc2s1 [Compound 32]	–	–	15.3% @ 0.3 μM	–
Cc1cc(O)c([C@@H]2O[C@H](CO)[C@@H](F)[C@H](O)[C@H]2O)cc1Cc1cc2c(s1)CCN(C(=O)N1CCCC1)C2 [Compound 66, (2-(5-((2S,3R,4R,5S,6R)-5-fluoro-3,4-dihydroxy-6-(hydroxymethyl)tetrahydro-2H-pyran-2-yl)-4-hydroxy-2-methylbenzyl)-6,7-dihydrothieno[3,2-c]pyridin-5(4H)-yl)(pyrrolidin-1-yl)methanone]	0.04 µM	0.014 µM	–	–
COc1cc(O)c([C@@H]2O[C@H](CC#N)[C@@H](F)[C@H](O)[C@H]2O)cc1Cc1cc2ccccc2s1 [Compound 22]	–	0.241 µM	–	inhibition at 0.3 µM [1]: 62.7%
CC(=O)N1CCc2sc(Cc3cc([C@@H]4O[C@H](CO)[C@@H](F)[C@H](O)[C@H]4O)c(O)cc3Cl)cc2C1 [Compound 74]	–	–	65.2% @ 0.3 μM	SGLT1 %-inhibition [1]: 65.5% @ 0.3 μM
Cc1cnc(N2CCc3sc(Cc4cc([C@@H]5O[C@H](CO)[C@@H](F)[C@H](O)[C@H]5O)ccc4C)cc3C2)s1 [Compound 122]	–	–	63.6% @ 0.3 μM	SGLT1 %-inhibition [1]: 31.7% @ 0.3 μM
OCCC1COc2c(Cc3ccc4c(c3)OCCO4)cc([C@@H]3O[C@H](CO)[C@@H](F)[C@H](O)[C@H]3O)cc21 (stereo partly drawn) [Compound 93]	–	–	42.3% @ 0.3 μM	SGLT1 %-inhibition [1]: 33.6% @ 0.3 μM
Cc1cc(CO)c([C@@H]2O[C@H](CO)[C@@H](F)[C@H](O)[C@H]2O)cc1Cc1cc2ccccc2s1 [Compound 42]	0.098 µM	0.01 µM	–	–
CCOc1cc(O)c([C@@H]2O[C@H](CO)[C@@H](F)[C@H](O)[C@H]2O)cc1Cc1cc2ccccc2s1 [Compound 30]	–	–	51.0% @ 0.3 μM	–
